Measured values as given in patent US20240025906A1 (NEURON23, INC., priority 2022, published 2024).

Legend:
[1] = molecular target: T1, TYK2 JH2 (Homo sapiens, UniProt P29597); test: TYK2 JH2 binding assay (KINOMEscan KdELECT competitive binding); settings: TYK2 JH2 domain, KINOMEscan KdELECT (Assay A); read-out: Biochemical TYK2_DiscoverX_JH2_BND_Kd
T1 construct: purchased DiscoverX (KINOMEscan KdELECT service); host or cells: E. coli BL21-derived (T7 phage display) or HEK-293
Method in brief: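 Kd values come from qPCR measurement of kinase retained on an immobilized-ligand resin after 1 h room-temperature competition with compound in an 11-point, 3-fold series.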

[2] = system: JAK1/TYK2 pSTAT5 (Tyr694/699) in THP-1 cell line; test: IFNa-stimulated JAK1/TYK2 pSTAT5 (Tyr694/699) inhibition cellular assay, AlphaLISA; type: cell-based; settings: Homo sapiens; THP-1 cells, IFNa-stimulated, AlphaLISA (Assay B); read-out: Cellular_THP1_IFNa-pSTATS_TYK2
Method in brief: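 An eight-point 6-fold titration of compound (0.04–10000 nM final) is given to THP-1 cells for 1 h before 30 min of IFNa exposure. Phospho-STAT5 is read by AlphaLISA at 615 nm. IC50 values are derived by logistic regression with bottom set to 0 and Hill slope set to −1.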

T1 sequence (P29597 589-875 limits assumed): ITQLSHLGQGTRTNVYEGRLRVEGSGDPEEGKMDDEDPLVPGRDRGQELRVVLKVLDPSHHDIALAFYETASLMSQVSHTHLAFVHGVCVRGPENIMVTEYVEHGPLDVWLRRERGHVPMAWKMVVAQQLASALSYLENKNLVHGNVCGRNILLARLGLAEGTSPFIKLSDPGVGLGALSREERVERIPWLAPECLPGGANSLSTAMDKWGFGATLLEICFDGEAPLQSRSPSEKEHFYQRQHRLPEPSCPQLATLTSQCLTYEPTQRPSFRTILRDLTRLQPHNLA

SMILES | Kd [1] [nM] | IC50 [2] [nM]
CNc1ncc(-c2nc3c(F)cccn3n2)c2cc(NC(=O)C3CC3)nnc12 [Example 887, N-(5-(8-fluoro-[1,2,4]triazolo[1,5-a]pyridin-2-yl)-8-(methylamino)pyrido[3,4-c]pyridazin-3-yl)cyclopropanecarboxamide] | ≤ 100 | ≤ 500
CNc1ncc(-c2nc3cc(OC)ccc3o2)c2cc(NC(=O)C3CC3)nnc12 [Example 888, N-(5-(5-methoxybenzo[d]oxazol-2-yl)-8-(methylamino)pyrido[3,4-c]pyridazin-3-yl)cyclopropanecarboxamide] | ≤ 100 | ≤ 500
CNc1ncc(C#Cc2ccc(OC)cn2)c2c(Cl)c(NC(=O)C3CC3)ncc12 [Example 889, N-(4-chloro-5-((5-methoxypyridin-2-yl)ethynyl)-8-(methylamino)-2,7-naphthyridin-3-yl)cyclopropanecarboxamide] | ≤ 100 | > 500
CNc1ncc(-c2nc3cc(N4CCO[C@@H](C)C4)ccc3o2)c2cc(NC(=O)C3CC3)nnc12 [Example 890, (S)—N-(8-(methylamino)-5-(5-(2-methylmorpholino)benzo[d]oxazol-2-yl)pyrido[3,4-c]pyridazin-3-yl)cyclopropanecarboxamide] | ≤ 100 | ≤ 500
CNc1ncc(C#Cc2ccc(OC3CN(C(C)=O)C3)cc2)c2cc(NC(=O)C3CC3)nnc12 [Example 893, N-(5-((4-((1-acetylazetidin-3-yl)oxy)phenyl)ethynyl)-8-(methylamino)pyrido[3,4-c]pyridazin-3-yl)cyclopropanecarboxamide] | ≤ 100 | ≤ 500
CNc1ncc(C#Cc2ccc3c(c2)OCCO3)c2cc(NC(=O)C3CC3)ncc12 [Example 894, N-(5-((2,3-dihydrobenzo[b][1,4]dioxin-6-yl)ethynyl)-8-(methylamino)-2,7-naphthyridin-3-yl)cyclopropanecarboxamide] | ≤ 100 | ≤ 500
CNc1ncc(C#Cc2ccc3c(c2)OC=CO3)c2cc(NC(=O)C3CC3)ncc12 [Example 895, N-(5-(benzo[b][1,4]dioxin-6-ylethynyl)-8-(methylamino)-2,7-naphthyridin-3-yl)cyclopropanecarboxamide] | ≤ 100 | ≤ 500
CNc1ncc(C#Cc2ccc(C3CCN(C)C3=O)cc2)c2cc(NC(=O)C3CC3)ncc12 (centres unmarked) [Example 896, N-(5-((4-(1-methyl-2-oxopyrrolidin-3-yl)phenyl)ethynyl)-8-(methylamino)-2,7-naphthyridin-3-yl)cyclopropanecarboxamide] | ≤ 100 | ≤ 500
CNc1ncc(C#Cc2cn(C)c(C(F)(F)F)n2)c2cc(NC(=O)C3CC3)ncc12 [Example 897, N-(5-((1-methyl-2-(trifluoromethyl)-1H-imidazol-4-yl)ethynyl)-8-(methylamino)-2,7-naphthyridin-3-yl)cyclopropanecarboxamide] | ≤ 100 | ≤ 500
[2H]C([2H])([2H])n1cc(C#Cc2cnc(NC)c3cnc(NC(=O)C4CC4)cc23)nc1C [Example 898, N-(5-((2-methyl-1-(methyl-d3)-1H-imidazol-4-yl)ethynyl)-8-(methylamino)-2,7-naphthyridin-3-yl)cyclopropanecarboxamide] | ≤ 100 | ≤ 500
CNc1ncc(C#Cc2cn3c(n2)CCCC3)c2cc(NC(=O)C3CC3)ncc12 [Example 899, N-(8-(methylamino)-5-((5,6,7,8-tetrahydroimidazo[1,2-a]pyridin-2-yl)ethynyl)-2,7-naphthyridin-3-yl)cyclopropanecarboxamide] | ≤ 100 | ≤ 500
[2H]C([2H])([2H])n1ccc(C#Cc2cnc(NC)c3cnc(NC(=O)C4CC4)cc23)n1 [Example 900, N-(5-((1-(methyl-d3)-1H-pyrazol-3-yl)ethynyl)-8-(methylamino)-2,7-naphthyridin-3-yl)cyclopropanecarboxamide] | ≤ 100 | ≤ 500
[2H]C([2H])([2H])n1nccc1C#Cc1cnc(NC)c2cnc(NC(=O)C3CC3)cc12 [Example 901, N-(5-((1-(methyl-d3)-1H-pyrazol-5-yl)ethynyl)-8-(methylamino)-2,7-naphthyridin-3-yl)cyclopropanecarboxamide] | ≤ 100 | ≤ 500

Next, values leading:

Kd [1] [nM] | IC50 [2] [nM] | SMILES
≤ 100 | > 500 | CNc1ncc(-c2cnc3ccc(OC)cn23)c2cc(NC(=O)[C@H]3C[C@H]3C)ncc12 [Example 878, (1S,2R)—N-(5-(6-methoxyimidazo[1,2-a]pyridin-3-yl)-8-(methylamino)-2,7-naphthyridin-3-yl)-2-methylcyclopropane-1-carboxamide]
≤ 100 | ≤ 500 | CNc1ncc(-c2cn3cc(OC)ccc3n2)c2cc(NC(=O)C3CC3)ncc12 [Example 879, N-(5-(6-methoxyimidazo[1,2-a]pyridin-2-yl)-8-(methylamino)-2,7-naphthyridin-3-yl)cyclopropanecarboxamide]
≤ 100 | ≤ 500 | CNc1ncc(-c2cn3cc(N4CCOCC4)ccc3n2)c2cc(NC(=O)C3CC3)ncc12 [Example 880, N-(8-(methylamino)-5-(6-morpholinoimidazo[1,2-a]pyridin-2-yl)-2,7-naphthyridin-3-yl)cyclopropanecarboxamide]
≤ 100 | > 500 | CNc1ncc(-c2cc(-c3ccccc3)[nH]n2)c2cc(NC(=O)C3CC3)ncc12 [Example 881, N-(8-(methylamino)-5-(5-phenyl-1H-pyrazol-3-yl)-2,7-naphthyridin-3-yl)cyclopropanecarboxamide]
≤ 100 | ≤ 500 | CNc1ncc(C#Cc2ccc3nnn(C)c3c2)c2cc(NC(=O)C3CC3)nnc12 [Example 882, N-(5-((1-methyl-1H-benzo[d][1,2,3]triazol-6-yl)ethynyl)-8-(methylamino)pyrido[3,4-c]pyridazin-3-yl)cyclopropanecarboxamide]
≤ 100 | ≤ 500 | CNc1ncc(C#Cc2ccc(N3CCO[C@H](C)C3)cc2)c2cc(NC(=O)C3CC3)nnc12 [Example 883, (R)—N-(8-(methylamino)-5-((4-(2-methylmorpholino)phenyl)ethynyl)pyrido[3,4-c]pyridazin-3-yl)cyclopropanecarboxamide]
≤ 100 | ≤ 500 | CNc1ncc(C#Cc2ccc(OC)cn2)c2cc(NC(=O)C3CC3)nnc12 [Example 884, N-(5-((5-methoxypyridin-2-yl)ethynyl)-8-(methylamino)pyrido[3,4-c]pyridazin-3-yl)cyclopropanecarboxamide]
≤ 100 | ≤ 500 | CNc1ncc(-c2nc3ccc(N4CCOCC4)cn3n2)c2cc(NC(=O)C3CC3)nnc12 [Example 885, N-(8-(methylamino)-5-(6-morpholino-[1,2,4]triazolo[1,5-a]pyridin-2-yl)pyrido[3,4-c]pyridazin-3-yl)cyclopropanecarboxamide]
≤ 100 | ≤ 500 | CNc1ncc(-c2nc3ccc(N4CCOCC4)cn3n2)c2cc(NC(=O)C3(F)CC3)nnc12 [Example 886, 1-fluoro-N-(8-(methylamino)-5-(6-morpholino-[1,2,4]triazolo[1,5-a]pyridin-2-yl)pyrido[3,4-c]pyridazin-3-yl)cyclopropane-1-carboxamide]
